# Measured values taken from patent publication US7906499B2, “Polycarboxylated porphyrins and use thereof in treatment of metal toxicities” (priority 2005, dated 2011).
# Values joined by “and” are separate entries in the source; they are usually repeats but may differ in a detail not shown here. Equal entries are not always repeated.
# What was measured:
# [1] = Absorption spectroscopy of porphyrin intermediates on addition of metal (metal binding), +Zn; parameters: key to Cpor 500 nm peak, change after metal addition / Cpor 538 nm peak, change after metal addition / Cpor 560 nm peak, change after metal addition / Cpor 608 nm peak, change after metal addition / Upor 498 nm peak, change after metal addition / Upor 540 nm peak, change after metal addition / Upor 565 nm peak, change after metal addition / Upor 612 nm peak, change after metal addition: Dis; peak disappeared.; Inc; Peak increased.; Dec; peak decreased.; = indicates no difference from the control.; (a)indicates new peak
# Source text: (§1) In the determining step, the individual is identified as subject to or predisposed to a polycarboxylated porphyrin-binding metal toxicity. Polycarboxylated porphyrin-binding metal toxicities include metal toxicity from environmental exposure, and disorders characterized by disturbances in metal ion homeostasis, particularly disorders that result in metal ion accumulation. Examples of such disorders include Wilson's disease, in which copper transport is defective (e.g. Nakayama, 2000); aceruloplasminemia, an iron metabolism disorder (e.g. Miyajima, 2003); and diseases involving metal-facilitated protein aggregation such as zinc, copper, or iron facilitated-aggregation of Aβ in Alzheimer's disease (e.g. Atamna, 2004), and aluminum, copper, iron, cobalt, or manganese facilitated-aggregation of α-synuclein in Parkinson's disease (e.g. Uversky, 2001). Conventional spectroscopy assays (e.g. Beer, 2003) can be used to determine whether a given polycarboxylated porphyrin binds the toxic metal of interest (e.g. Example 2, below). In particular embodiments, the metal is selected from the group consisting of Al^+++, Hg^++, […], Cu^+, Mn^+, and Zn^++.
# (§2) We studied the interaction between metals and porphyrin intermediates.
# [2] = Absorption spectroscopy of porphyrin intermediates on addition of metal (metal binding), +Cu; parameters: key to Cpor 370 nm peak, change after metal addition / Cpor 500 nm peak, change after metal addition / Cpor 538 nm peak, change after metal addition / Cpor 560 nm peak, change after metal addition / Cpor 608 nm peak, change after metal addition / Upor 395 nm peak, change after metal addition / Upor 498 nm peak, change after metal addition / Upor 540 nm peak, change after metal addition / Upor 565 nm peak, change after metal addition / Upor 612 nm peak, change after metal addition: Dis; peak disappeared.; Inc; Peak increased.; Dec; peak decreased.; = indicates no difference from the control.; (a)indicates new peak
# Source text: as §1, §2
# [3] = Absorption spectroscopy of porphyrin intermediates on addition of metal (metal binding), +Mn; parameters: key to Cpor 370 nm peak, change after metal addition / Cpor 500 nm peak, change after metal addition / Cpor 538 nm peak, change after metal addition / Cpor 560 nm peak, change after metal addition / Cpor 608 nm peak, change after metal addition / Upor 395 nm peak, change after metal addition / Upor 498 nm peak, change after metal addition / Upor 540 nm peak, change after metal addition / Upor 565 nm peak, change after metal addition / Upor 612 nm peak, change after metal addition: Dis; peak disappeared.; Inc; Peak increased.; Dec; peak decreased.; = indicates no difference from the control.; (a)indicates new peak
# Source text: as §1, §2
# [4] = target: Aβ1-40 (Homo sapiens, UniProt P05067); experiment: Dissolution / prevention of metal-induced Aβ aggregates (filtration, 6E10 immunodetection); format: biochemical; settings: "we found", with reference to Atamna, 2004
# Method: Aβ1-40 (10 ng in 200 μl) aggregation is induced by incubation (30 min, RT) with ZnCl2 (25 μM in TBS, pH 7.4), CuCl2 (5 μM in TBS, pH 6.8), or acidic conditions (pH 5.5, MES buffered saline). Aggregates are transferred to a 0.2μ nylon membrane by filtration using a 96-well ELIFA apparatus (Pierce). The aggregates are then washed (200 μl/well) with TBS alone, TBS containing 2 μM EDTA (control), or TBS with uroproporphyrin or coproporphyrin at varying concentrations (0.1 μM-1 mM). The membrane is fixed, probed with the anti-Aβ monoclonal antibody 6E10 (Senetek), and developed for exposure to ECL film. Quantification of retained, aggregated Aβ is performed by densitometry, calibrated against known amounts of the peptide.
# Because metals, such as Zn++ and Cu+, trigger the pathologic aggregation of Aβ, an important causal factor in Alzheimers disease, we tested the ability of endogenous prophyrins to prevent Aβ aggregation using published methodology. […] The effect of porphyrins on Aβ is likely mediated by their ability to chelate metals. […] Endogenous porphyrins can be used directly, or their synthesis can be triggered in tissue by applying their precursors and/or cofactors, for therapeutic purposes including the treatment and prevention of disorders that involve Aβ aggregation and/or metal toxicity. […]
# Aβ1-40, sequence (P05067 672-711 limits assumed): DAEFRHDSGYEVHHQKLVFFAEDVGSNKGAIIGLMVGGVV
compound,measurement,setting,value
"O=C(O)CCC1=C(CC(=O)O)c2cc3[nH]c(cc4nc(cc5[nH]c(cc1n2)c(CC(=O)O)c5CCC(=O)O)C(CCC(=O)O)=C4CC(=O)O)c(CC(=O)O)c3CCC(=O)O [Upor, Uroporphyrin III]",New peak after metal addition (marked a),[1],575a nm
same,"Upor 498 nm peak, change after metal addition",[1],Dis
same,"Upor 540 nm peak, change after metal addition",[1],Inc
same,"Upor 565 nm peak, change after metal addition",[1],Dis
same,"Upor 612 nm peak, change after metal addition",[1],Dis
same,Upor 395 nm peak after metal addition (peak position),[1]; control peak 395 nm,405 nm
same,New peak after metal addition (marked a),[2],525a nm
same,"Upor 395 nm peak, change after metal addition",[2],Inc
same,"Upor 498 nm peak, change after metal addition",[2],Dis
same,"Upor 540 nm peak, change after metal addition",[2],Dis
same,"Upor 565 nm peak, change after metal addition",[2],Inc
same,"Upor 612 nm peak, change after metal addition",[2],Dis
same,New peak after metal addition (marked a),[3],460a nm and 545a nm and 575a nm
same,"Upor 395 nm peak, change after metal addition",[3],Inc
same,"Upor 498 nm peak, change after metal addition",[3],Dis
same,"Upor 540 nm peak, change after metal addition",[3],Dis
same,"Upor 565 nm peak, change after metal addition",[3],Dis
same,"Upor 612 nm peak, change after metal addition",[3],Dis
C=CC1=C(C)c2cc3[n-]c(cc4[n-]c(cc5nc(cc1n2)C(C)=C5C=C)c(C)c4CCC(=O)O)c(CCC(=O)O)c3C.[Fe+2] [heme],Displacement of metals from aggregated Aβ and disaggregation,[4],displace metals from the aggregated Aβ and disaggregate the complex
Coproporphyrin III [Cpor],"Cpor 500 nm peak, change after metal addition",[1],Dis
same,"Cpor 538 nm peak, change after metal addition",[1],Inc
same,"Cpor 560 nm peak, change after metal addition",[1],Inc
same,"Cpor 608 nm peak, change after metal addition",[1],Dis
same,New peak after metal addition (marked a),[1],575a nm
same,Cpor 370 nm peak after metal addition (peak position),[1]; control peak 370 nm,400 nm
same,"Cpor 370 nm peak, change after metal addition",[2],=
same,"Cpor 500 nm peak, change after metal addition",[2],=
same,"Cpor 538 nm peak, change after metal addition",[2],Dec
same,"Cpor 560 nm peak, change after metal addition",[2],Dec
same,"Cpor 608 nm peak, change after metal addition",[2],Dis
same,New peak after metal addition (marked a),[2],525a nm
same,"Cpor 370 nm peak, change after metal addition",[3],=
same,"Cpor 500 nm peak, change after metal addition",[3],=
same,"Cpor 538 nm peak, change after metal addition",[3],=
same,"Cpor 560 nm peak, change after metal addition",[3],=
same,"Cpor 608 nm peak, change after metal addition",[3],=
